13 molecules from US8901118B2, “Compounds and methods for kinase modulation, and indications therefor” (Plexxikon Inc., priority 2010, dated 2014) can be followed below.

Bounds are passed on as bounds.

For one experiment, the target named is CYP3A4(BFC) (Homo sapiens, UniProt P08684). Put plainly: CYP3A4(BFC) inhibition. It counts as in vitro ADME. The conditions noted are these: CYP3A4, substrate BFC; read-out: Cyp IC50 3A4(BFC). A digest of the protocol:
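Inhibition of human CYP3A4 with the BFC substrate was measured by fluorescence loss of the metabolized product. Compounds at 100 mM in DMSO were diluted 1 μL into 82 μL acetonitrile, then 11 μL into 204 μL cofactor mix with NADPH regeneration solutions, and serially diluted 1:1 to 10 points. Plates were incubated 30 min at 37° C and read at 409 ex/460 em to obtain IC50.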

A further experiment has as its system SKNSH cells. In words: SKNSH (human neuroblastoma) cell proliferation assay (ATPlite). It counts as cell-based. The conditions noted are these: SK-N-SH, read-out: Inhibition of Cell Proliferation IC50, SKNSH. In short, it runs like this:
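SK-N-SH human neuroblastoma cells grown in RPMI with 10% FBS were pelleted, resuspended at 2×10^4 cells/mL, and plated at 3,000 cells per well (150 μL) in 96-well plates, then kept overnight at 37° C. in 5% CO2. Compounds in an 8-point 1:3 DMSO series were added as 0.75 μL aliquots.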
In general terms: ATP-based viability assays read luminescence as a measure of living cells.

The target of another experiment is T1, CYP1A2 (Homo sapiens, UniProt P05177).
T1 sequence (P05177 1-516): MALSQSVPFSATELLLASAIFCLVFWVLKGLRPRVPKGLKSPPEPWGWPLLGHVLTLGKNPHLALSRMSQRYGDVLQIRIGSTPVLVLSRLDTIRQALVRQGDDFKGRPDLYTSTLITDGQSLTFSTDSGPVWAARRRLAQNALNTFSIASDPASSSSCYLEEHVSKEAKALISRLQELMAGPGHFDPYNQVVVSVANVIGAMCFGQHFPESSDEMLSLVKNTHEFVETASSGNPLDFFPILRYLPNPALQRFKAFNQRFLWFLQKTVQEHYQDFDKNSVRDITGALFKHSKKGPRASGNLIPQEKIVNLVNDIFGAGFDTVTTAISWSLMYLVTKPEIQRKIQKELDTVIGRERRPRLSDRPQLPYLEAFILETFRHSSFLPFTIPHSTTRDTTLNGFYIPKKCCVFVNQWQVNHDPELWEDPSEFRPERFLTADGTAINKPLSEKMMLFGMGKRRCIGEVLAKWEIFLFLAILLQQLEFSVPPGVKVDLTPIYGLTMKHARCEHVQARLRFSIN
Put plainly: CYP1A2 inhibition (fluorescent substrate CEC). The conditions noted are these: read-out: Cyp IC50 1A2. The experiment is classed as in vitro ADME. A digest of the protocol: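 Test compounds, 10-point 1:1 serial dilutions in NADPH-regenerating cofactor mix, were preincubated 10 min at 37° C before recombinant enzyme and fluorogenic substrate reactions at 37° C (CYP1A2 15 min; CYP2C9 45 min; CYP2C19, 2D6 30 min). Product fluorescence was read at 409 ex with 460 em (1A2, 2C19) or 530 em (2C9, 2D6), and IC50 fitted from signal versus concentration.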

In the next experiment the target is T2, BCR-NTRK3 BaF3 cells (Homo sapiens, UniProt Q16288).
T2 construct: fused on or other part: P11274 (Breakpoint cluster region protein)
Put plainly: BaF3 BCR-NTRK3 cell proliferation assay (ATPlite). It counts as cell-based. The conditions noted are these: read-out: Inhibition of Cell Proliferation IC50, BCR/BaF3 TrkC. A digest of the protocol:
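ATP-based luminescence (ATPlite), read after 10 min at room temperature, served as a proxy for cell number, and IC50 was fitted against compound concentration. Before that, cells were treated for 3 days with an 8-point 1:3 dilution series starting at 10 μM. BaF3 cells were plated at 10,000/well without IL-3, and MV-4-11 cells at 25,000/well.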

Chain of CYP3A4(BFC) (P08684 whole entry): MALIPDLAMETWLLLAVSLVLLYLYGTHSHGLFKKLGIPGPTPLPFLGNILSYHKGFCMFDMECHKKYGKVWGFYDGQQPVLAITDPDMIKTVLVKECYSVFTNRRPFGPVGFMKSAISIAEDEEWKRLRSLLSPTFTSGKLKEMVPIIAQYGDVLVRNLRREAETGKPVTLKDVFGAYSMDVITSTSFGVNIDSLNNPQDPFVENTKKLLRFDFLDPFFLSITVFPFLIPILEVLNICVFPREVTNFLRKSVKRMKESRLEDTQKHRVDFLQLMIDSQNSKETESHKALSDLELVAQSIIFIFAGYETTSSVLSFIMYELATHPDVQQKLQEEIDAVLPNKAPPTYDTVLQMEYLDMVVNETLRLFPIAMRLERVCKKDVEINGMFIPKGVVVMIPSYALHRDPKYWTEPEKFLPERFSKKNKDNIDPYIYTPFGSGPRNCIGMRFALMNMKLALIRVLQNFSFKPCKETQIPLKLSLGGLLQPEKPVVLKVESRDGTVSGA
T2 sequence (Q16288 whole entry, the tested form may be a part): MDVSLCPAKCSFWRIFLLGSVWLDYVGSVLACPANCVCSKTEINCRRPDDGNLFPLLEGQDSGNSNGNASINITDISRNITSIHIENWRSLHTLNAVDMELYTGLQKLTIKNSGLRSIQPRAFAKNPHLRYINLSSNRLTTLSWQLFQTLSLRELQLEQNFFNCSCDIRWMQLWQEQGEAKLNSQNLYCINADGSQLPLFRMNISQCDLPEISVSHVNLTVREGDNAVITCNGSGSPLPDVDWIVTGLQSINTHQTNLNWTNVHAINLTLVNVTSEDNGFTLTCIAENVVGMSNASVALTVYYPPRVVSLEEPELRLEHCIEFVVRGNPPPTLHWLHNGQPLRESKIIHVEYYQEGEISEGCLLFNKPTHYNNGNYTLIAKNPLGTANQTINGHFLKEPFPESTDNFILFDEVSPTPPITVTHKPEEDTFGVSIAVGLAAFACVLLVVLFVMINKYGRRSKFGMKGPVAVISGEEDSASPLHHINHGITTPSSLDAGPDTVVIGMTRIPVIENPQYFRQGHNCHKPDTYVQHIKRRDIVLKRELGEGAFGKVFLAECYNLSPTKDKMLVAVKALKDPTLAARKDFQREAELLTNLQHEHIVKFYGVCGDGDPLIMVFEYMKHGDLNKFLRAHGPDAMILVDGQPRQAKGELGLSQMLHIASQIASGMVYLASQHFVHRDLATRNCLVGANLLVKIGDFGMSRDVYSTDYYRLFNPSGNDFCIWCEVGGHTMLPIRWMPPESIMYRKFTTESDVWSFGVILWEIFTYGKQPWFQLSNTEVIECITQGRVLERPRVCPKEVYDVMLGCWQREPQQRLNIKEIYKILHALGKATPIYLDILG

With `CCn1cc(Nc2ccc(Cc3c[nH]c4ncnc(OCCOC)c34)c(F)n2)cn1` [Compound P-4014, (1-Ethyl-1H-pyrazol-4-yl)-{6-fluoro-5-[4-(2-methoxy-ethoxy)-7H-pyrrolo[2,3-d]pyrimidin-5-ylmethyl]-pyridin-2-yl}-amine], the IC50 at CYP3A4(BFC) was 5 to 10 µM; in the experiment with SKNSH cells it was above 10000 nM; on CYP1A2, above 10 µM; at BCR-NTRK3 BaF3 cells, below 1000 nM.

Regarding `COCCOc1ncnc2[nH]cc(Cc3ccc(Nc4ccc(C)nc4)nc3F)c12` [Compound P-4015, {6-Fluoro-5-[4-(2-methoxy-ethoxy)-7H-pyrrolo[2,3-d]pyrimidin-5-ylmethyl]-pyridin-2-yl}-(6-methyl-pyridin-3-yl)-amine], the IC50 on CYP3A4(BFC) was above 10 µM; in the experiment on SKNSH cells, above 1000 nM; on CYP1A2, above 10 µM; on BCR-NTRK3 BaF3 cells, below 100 nM.

As for `CCc1ccc(Nc2ccc(Cc3c[nH]c4ncnc(OCCOC)c34)c(F)n2)cn1` [Compound P-4016, (6-Ethyl-pyridin-3-yl)-{6-fluoro-5-[4-(2-methoxy-ethoxy)-7H-pyrrolo[2,3-d]pyrimidin-5-ylmethyl]-pyridin-2-yl}-amine], the IC50 at CYP3A4(BFC) was above 10 µM; in the experiment with SKNSH cells, above 1000 nM; on CYP1A2 it was above 10 µM; at BCR-NTRK3 BaF3 cells, below 10 nM.

As for `CCOc1ncnc2[nH]cc(Cc3ccc(Nc4ccc(C)nc4)nc3F)c12` [Compound P-4017, [5-(4-Ethoxy-7H-pyrrolo[2,3-d]pyrimidin-5-ylmethyl)-6-fluoro-pyridin-2-yl]-(6-methyl-pyridin-3-yl)-amine], the IC50 at CYP3A4(BFC) was above 10 µM; in the experiment on SKNSH cells it was below 1000 nM; at CYP1A2 it was above 10 µM; on BCR-NTRK3 BaF3 cells, below 100 nM.

Consider `CCOc1ncnc2[nH]cc(Cc3ccc(Nc4ccc(OC)nc4)nc3F)c12` [Compound P-4018, [5-(4-Ethoxy-7H-pyrrolo[2,3-d]pyrimidin-5-ylmethyl)-6-fluoro-pyridin-2-yl]-(6-methoxy-pyridin-3-yl)-amine], for which the IC50 on CYP3A4(BFC) is 5 to 10 µM; in the experiment on SKNSH cells, below 1000 nM; at CYP1A2, above 10 µM; at BCR-NTRK3 BaF3 cells, below 10 nM.

Regarding `COCCOc1ncnc2[nH]cc(Cc3ccc(Nc4ccc(OC)nc4)nc3F)c12` [Compound P-4019, {6-Fluoro-5-[4-(2-methoxy-ethoxy)-7H-pyrrolo[2,3-d]pyrimidin-5-ylmethyl]-pyridin-2-yl}-(6-methoxy-pyridin-3-yl)-amine], the IC50 on CYP3A4(BFC) is 5 to 10 µM; in the experiment with SKNSH cells it was above 1000 nM; on CYP1A2, above 10 µM; on BCR-NTRK3 BaF3 cells it was below 100 nM.

Regarding `COc1ccc(Nc2ccc(C(=O)c3c[nH]c4ncnc(C5CC5)c34)c(F)n2)cn1` [Compound P-4022, (4-cyclopropyl-7H-pyrrolo[2,3-d]pyrimidin-5-yl)-[2-fluoro-6-(6-methoxy-pyridin-3-ylamino)-pyridin-3-yl]-methanone], the IC50 was 5 to 10 µM on CYP3A4(BFC), below 1000 nM in the experiment on SKNSH cells, above 10 µM at CYP1A2 and below 10 nM at BCR-NTRK3 BaF3 cells.

Turning to `COc1ccc(Nc2ccc(Cc3c[nH]c4ncnc(C5CC5)c34)c(F)n2)cn1` [Compound P-4023, [5-(4-cyclopropyl-7H-pyrrolo[2,3-d]pyrimidin-5-ylmethyl)-6-fluoro-pyridin-2-yl]-(6-methoxy-pyridin-3-yl)-amine], the IC50 on CYP3A4(BFC) is below 5 µM; in the experiment with SKNSH cells, below 1000 nM; on CYP1A2, above 10 µM; on BCR-NTRK3 BaF3 cells it was below 10 nM.

Regarding `CCOc1ccc(Nc2ccc(C(=O)c3c[nH]c4ncnc(OC)c34)c(F)n2)cn1` [Compound P-4024, [6-(6-Ethoxy-pyridin-3-ylamino)-2-fluoro-pyridin-3-yl]-(4-methoxy-7H-pyrrolo[2,3-d]pyrimidin-5-yl)-methanone], the IC50 was below 5 µM at CYP3A4(BFC), above 1000 nM with SKNSH cells, above 10 µM at CYP1A2 and below 100 nM on BCR-NTRK3 BaF3 cells.

As to `CCOc1ncnc2[nH]cc(C(=O)c3ccc(Nc4ccc(OC)nc4)nc3F)c12` [Compound P-4025, (4-Ethoxy-7H-pyrrolo[2,3-d]pyrimidin-5-yl)-[2-fluoro-6-(6-methoxy-pyridin-3-ylamino)-pyridin-3-yl]-methanone], the IC50 at CYP3A4(BFC) was below 5 µM; in the experiment on SKNSH cells, above 1000 nM; on CYP1A2, above 10 µM; at BCR-NTRK3 BaF3 cells, below 100 nM.

For `Fc1nc(NC2CCC(F)(F)CC2)ccc1Cc1c[nH]c2ncnc(NCC(F)(F)F)c12` [Compound P-4128, 5-[[6-[(4,4-difluorocyclohexyl)amino]-2-fluoro-3-pyridyl]methyl]-N-(2,2,2-trifluoroethyl)-7H-pyrrolo[2,3-d]pyrimidin-4-amine], the IC50 at CYP3A4(BFC) is above 10 µM; in the experiment on SKNSH cells, above 1000 nM; on CYP1A2, above 10 µM; on BCR-NTRK3 BaF3 cells, below 100 nM.

As to `Fc1nc(NC2CCC(F)(F)CC2)ccc1Cc1c[nH]c2ncnc(NC3CC3)c12` [Compound P-4129, N-cyclopropyl-5-[[6-[(4,4-difluorocyclohexyl)amino]-2-fluoro-3-pyridyl]methyl]-7H-pyrrolo[2,3-d]pyrimidin-4-amine], the IC50 is below 5 µM at CYP3A4(BFC), above 10000 nM in the experiment on SKNSH cells, above 10 µM on CYP1A2 and below 100 nM on BCR-NTRK3 BaF3 cells.

With `Fc1nc(Nc2ccc(C3CC3)nc2)ccc1Cc1c[nH]c2ncnc(NCC(F)(F)F)c12` [Compound P-4130, 5-[[6-[(6-cyclopropyl-3-pyridyl)amino]-2-fluoro-3-pyridyl]methyl]-N-(2,2,2-trifluoroethyl)-7H-pyrrolo[2,3-d]pyrimidin-4-amine], the IC50 at CYP3A4(BFC) is below 5 µM; in the experiment on SKNSH cells it was below 10000 nM; on CYP1A2, above 10 µM; at BCR-NTRK3 BaF3 cells, below 10 nM.
